PMC6001238, “Iterative Chemical Engineering of Vancomycin Leads to Novel Vancomycin Analogs With a High in Vitro Therapeutic Index” (Frontiers in Microbiology, 2018)
Values after ≈ are worked out from the molar mass of the structure shown.

Tests used:
[1] = tested on: L1210, CEM and HeLa cell lines; assay: Cytostatic activity, average or summary over L1210, CEM and HeLa; format: cell-based; conditions: average of L1210, CEM and HeLa; read-out: Toxicity (IC50) Average
How it was run: (§1)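 Test compounds, serially diluted, received an equal volume of cell suspension at 300,000–500,000 cells/mL. After 37°C incubation (2 days for L1210, 3 for CEM, 4 for HeLa), cells were enumerated by Coulter counting and 50%-inhibitory concentrations calculated per cell type.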

S. aureus VISA/HIP5827 = assay: MIC, broth microdilution, vancomycin-intermediate S. aureus VISA HIP5827; format: cell-based, Staphylococcus aureus; conditions: for MIC: Staphylococcus aureus VISA/HIP5827, read-out: MIC; for MIC-fold improvement vs. vancomycin: VISA/HIP5827, ratio of MIC of vancomycin and MIC of analogue
How it was run: (§2)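 CLSI broth microdilution; water and uninoculated-broth controls; one arm supplemented with vancomycin, final 10 μM, given with analogue or control antibiotic.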

E. faecalis VRE 37 = assay: MIC, broth microdilution, vancomycin-resistant E. faecalis VRE 37 (VanA); format: cell-based, Enterococcus faecalis; conditions: for MIC: Enterococcus faecalis VRE 37 (vancomycin-resistant), read-out: MIC; for MIC-fold improvement vs. vancomycin: VRE 37, ratio of MIC of vancomycin and MIC of analogue
How it was run: as §2

MRSA KS1 = assay: MIC, broth microdilution, MRSA KS1; format: cell-based, Staphylococcus aureus; conditions: for MIC-fold improvement vs. vancomycin: MRSA KS1, ratio of MIC of vancomycin and MIC of analogue; for MIC: Staphylococcus aureus MRSA KS1, read-out: MIC
How it was run: as §2

E. faecalis VSE 1 = assay: MIC, broth microdilution, vancomycin-sensitive E. faecalis (VSE 1); format: cell-based, Enterococcus faecalis; conditions: for MIC: Enterococcus faecalis VSE 1 (vancomycin-sensitive), read-out: MIC; for MIC-fold improvement vs. vancomycin: VSE 1, ratio of MIC of vancomycin and MIC of analogue
How it was run: as §2

[2] = tested on: S. aureus VSSA (ATCC 6538); assay: MIC, broth microdilution, vancomycin-sensitive S. aureus (VSSA/MSSA, ATCC 6538); format: cell-based, Staphylococcus aureus; conditions: for MIC: Staphylococcus aureus VSSA, read-out: MIC; for MIC-fold improvement vs. vancomycin: VSSA, ratio of MIC of vancomycin and MIC of analogue
How it was run: as §2

MRSA KS6 = assay: MIC, broth microdilution, MRSA KS6; format: cell-based, Staphylococcus aureus; conditions: for MIC-fold improvement vs. vancomycin: MRSA KS6, ratio of MIC of vancomycin and MIC of analogue; for MIC: Staphylococcus aureus MRSA KS6, read-out: MIC
How it was run: as §2

S. aureus VRSA = assay: MIC, broth microdilution, vancomycin-resistant S. aureus (VRSA); format: cell-based, Staphylococcus aureus; conditions: for MIC: Staphylococcus aureus VRSA, read-out: MIC; for MIC-fold improvement vs. vancomycin: VRSA, ratio of MIC of vancomycin and MIC of analogue
How it was run: as §2

MRSA KS89 = assay: MIC, broth microdilution, MRSA KS89; format: cell-based, Staphylococcus aureus; conditions: for MIC-fold improvement vs. vancomycin: MRSA KS8, ratio of MIC of vancomycin and MIC of analogue; for MIC: Staphylococcus aureus MRSA KS8, read-out: MIC
How it was run: as §2

[3] = tested on: Murine leukemia (L1210) cells; assay: Cytostatic activity, L1210 cell proliferation; format: cell-based; conditions: mean ± SD of three experiments; highest concentration tested 250 µM; 2 days; read-out: Toxicity (IC50) L1210
How it was run: as §1

E. faecalis VRE 29 = assay: MIC, broth microdilution, vancomycin-resistant E. faecalis VRE 29 (VanA); format: cell-based, Enterococcus faecalis; conditions: for MIC: Enterococcus faecalis VRE 29 (vancomycin-resistant), read-out: MIC; for MIC-fold improvement vs. vancomycin: VRE 29, ratio of MIC of vancomycin and MIC of analogue
How it was run: as §2

E. faecalis VRE 53 = assay: MIC, broth microdilution, vancomycin-resistant E. faecalis VRE 53 (VanA); format: cell-based, Enterococcus faecalis; conditions: for MIC: Enterococcus faecalis VRE 53 (vancomycin-resistant), read-out: MIC; for MIC-fold improvement vs. vancomycin: VRE 53, ratio of MIC of vancomycin and MIC of analogue
How it was run: as §2

[4] = tested on: human T-lymphocyte (CEM) cells; assay: Cytostatic activity, CEM cell proliferation; format: cell-based; conditions: mean ± SD of three experiments; highest concentration tested 250 µM; 3 days; read-out: Toxicity (IC50) CEM
How it was run: as §1

MRSA KS2 = assay: MIC, broth microdilution, MRSA KS2; format: cell-based, Staphylococcus aureus; conditions: for MIC-fold improvement vs. vancomycin: MRSA KS2, ratio of MIC of vancomycin and MIC of analogue; for MIC: Staphylococcus aureus MRSA KS2, read-out: MIC
How it was run: as §2

[5] = tested on: human cervix carcinoma (HeLa) cells; assay: Cytostatic activity, HeLa cell proliferation; format: cell-based; conditions: mean ± SD of three experiments; highest concentration tested 250 µM; 4 days; read-out: Toxicity (IC50) HeLa
How it was run: as §1

E. faecalis VRE 6 = assay: MIC, broth microdilution, vancomycin-resistant E. faecalis VRE 6 (VanA); format: cell-based, Enterococcus faecalis; conditions: for MIC: Enterococcus faecalis VRE 6 (vancomycin-resistant), read-out: MIC; for MIC-fold improvement vs. vancomycin: VRE 6, ratio of MIC of vancomycin and MIC of analogue
How it was run: as §2

SMILES	IC50 [1] [µM]	MIC (S. aureus VISA/HIP5827) [µM]	MIC-fold improvement vs. vancomycin (S. aureus VISA/HIP5827)	MIC (E. faecalis VRE 37) [µM]	MIC-fold improvement vs. vancomycin (MRSA KS1)	MIC (MRSA KS1) [µM]	MIC (E. faecalis VSE 1) [µM]	MIC-fold improvement vs. vancomycin (E. faecalis VSE 1)	MIC [2] [µM]	MIC-fold improvement vs. vancomycin [2]	MIC-fold improvement vs. vancomycin (MRSA KS6)	MIC (MRSA KS6) [µM]	MIC (S. aureus VRSA) [µM]	MIC-fold improvement vs. vancomycin (S. aureus VRSA)	MIC-fold improvement vs. vancomycin (MRSA KS89)	MIC (MRSA KS89) [µM]	IC50 [3] [µM]	MIC (E. faecalis VRE 29) [µM]	MIC-fold improvement vs. vancomycin (E. faecalis VRE 29)	MIC (E. faecalis VRE 53) [µM]	also measured
CNC(CC(C)C)C(=O)NC1C(=O)NC(CC(N)=O)C(=O)NC2C(=O)NC3C(=O)NC(C(=O)NC(C(=O)NCCCNC(=O)c4ccc5cc(O)ccc5c4)c4cc(O)cc(O)c4-c4cc3ccc4O)C(O)c3ccc(c(Cl)c3)Oc3cc2cc(c3OC2OC(CO)C(O)C(O)C2OC2CC(C)(N)C(O)C(C)O2)Oc2ccc(cc2Cl)C1O (centres unmarked) [Vanc-30]	182	0.39 (≈ 0.653 µg/mL)	16	25 (≈ 41.9 µg/mL)	2	0.39 (≈ 0.653 µg/mL)	0.39 (≈ 0.653 µg/mL)	4	0.39 (≈ 0.653 µg/mL)	2	2	0.39 (≈ 0.653 µg/mL)	3.13 (≈ 5.24 µg/mL)	32	2	0.39 (≈ 0.653 µg/mL)	> 250	12.5 (≈ 20.9 µg/mL)	32	25 (≈ 41.9 µg/mL)	MIC-fold improvement vs. vancomycin (E. faecalis VRE 37): 16; MIC-fold improvement vs. vancomycin (E. faecalis VRE 53): 16; IC50 [4]: > 250 µM; MIC-fold improvement vs. vancomycin (MRSA KS2): 2; MIC (MRSA KS2): 0.39 µM (≈ 0.653 µg/mL); IC50 [5]: 45 ± 25 µM; MIC (E. faecalis VRE 6): 3.13 µM (≈ 5.24 µg/mL); MIC-fold improvement vs. vancomycin (E. faecalis VRE 6): 64
CNC(CC(C)C)C(=O)NC1C(=O)NC(CC(N)=O)C(=O)NC2C(=O)NC3C(=O)NC(C(=O)NC(C(=O)NCCNC(=O)C=Cc4ccc(NS(=O)(=O)c5ccc(Cl)cc5)cc4)c4cc(O)cc(O)c4-c4cc3ccc4O)C(O)c3ccc(c(Cl)c3)Oc3cc2cc(c3OC2OC(CO)C(O)C(O)C2OC2CC(C)(N)C(O)C(C)O2)Oc2ccc(cc2Cl)C1O (centres unmarked) [Vanc-62]	195	1.56 (≈ 2.83 µg/mL)	4	12.5 (≈ 22.6 µg/mL)	4	0.20 (≈ 0.362 µg/mL)	0.39 (≈ 0.706 µg/mL)	4	0.39 (≈ 0.706 µg/mL)	2	2	0.39 (≈ 0.706 µg/mL)	0.78 (≈ 1.41 µg/mL)	128	2	0.39 (≈ 0.706 µg/mL)	> 250	6.25 (≈ 11.3 µg/mL)	64	25 (≈ 45.3 µg/mL)	MIC-fold improvement vs. vancomycin (E. faecalis VRE 53): 16; IC50 [4]: ≥ 250 µM; MIC-fold improvement vs. vancomycin (MRSA KS2): 4; MIC (MRSA KS2): 0.20 µM (≈ 0.362 µg/mL); IC50 [5]: 86 ± 42 µM; MIC (E. faecalis VRE 6): 3.13 µM (≈ 5.67 µg/mL); MIC-fold improvement vs. vancomycin (E. faecalis VRE 6): 64
CN[C@H](CC(C)C)C(=O)N[C@H]1C(=O)N[C@@H](CC(N)=O)C(=O)N[C@H]2C(=O)N[C@H]3C(=O)N[C@H](C(=O)N[C@H](C(=O)NCC(=O)Nc4c(C)cc(C)cc4C)c4cc(O)cc(O)c4-c4cc3ccc4O)[C@H](O)c3ccc(c(Cl)c3)Oc3cc2cc(c3O[C@@H]2O[C@H](CO)[C@@H](O)[C@H](O)[C@H]2O[C@H]2C[C@](C)(N)[C@H](O)[C@H](C)O2)Oc2ccc(cc2Cl)[C@H]1O [Vanc-9]	191	1.56 (≈ 2.53 µg/mL)	4	25 (≈ 40.6 µg/mL)	1	0.78 (≈ 1.27 µg/mL)	0.78 (≈ 1.27 µg/mL)	2	0.78 (≈ 1.27 µg/mL)	1	1	0.78 (≈ 1.27 µg/mL)	25 (≈ 40.6 µg/mL)	4	1	0.78 (≈ 1.27 µg/mL)	> 250	25 (≈ 40.6 µg/mL)	16	25 (≈ 40.6 µg/mL)	MIC-fold improvement vs. vancomycin (E. faecalis VRE 53): 16; IC50 [4]: 240 ± 14 µM; MIC-fold improvement vs. vancomycin (MRSA KS2): 1; MIC (MRSA KS2): 0.78 µM (≈ 1.27 µg/mL); IC50 [5]: 83 ± 5 µM; MIC (E. faecalis VRE 6): 6.25 µM (≈ 10.1 µg/mL); MIC-fold improvement vs. vancomycin (E. faecalis VRE 6): 32
CNC(CC(C)C)C(=O)NC1C(=O)NC(CC(N)=O)C(=O)NC2C(=O)NC3C(=O)NC(C(=O)NC(C(=O)NCC(=O)Nc4ccc(-c5ccc(Cl)cc5)cc4)c4cc(O)cc(O)c4-c4cc3ccc4O)C(O)c3ccc(c(Cl)c3)Oc3cc2cc(c3OC2OC(CO)C(O)C(O)C2OC2CC(C)(N)C(O)C(C)O2)Oc2ccc(cc2Cl)C1O (centres unmarked) [Vanc-84]	5	0.39 (≈ 0.66 µg/mL)	16	3.13 (≈ 5.3 µg/mL)	8	0.10 (≈ 0.169 µg/mL)	≤0.05	≥32	0.10 (≈ 0.169 µg/mL)	8	4	0.20 (≈ 0.338 µg/mL)	0.78 (≈ 1.32 µg/mL)	128	4	0.20 (≈ 0.338 µg/mL)	1.5 ± 0.1	0.78 (≈ 1.32 µg/mL)	512	3.13 (≈ 5.3 µg/mL)	MIC-fold improvement vs. vancomycin (E. faecalis VRE 37): 128; MIC-fold improvement vs. vancomycin (E. faecalis VRE 53): 128; IC50 [4]: 1.6 ± 0.9 µM; MIC-fold improvement vs. vancomycin (MRSA KS2): 8; MIC (MRSA KS2): 0.10 µM (≈ 0.169 µg/mL); IC50 [5]: 13 µM; MIC (E. faecalis VRE 6): 0.78 µM (≈ 1.32 µg/mL); MIC-fold improvement vs. vancomycin (E. faecalis VRE 6): 256
